In general, IC50 refers to the concentration at which inhibition is half-maximal. A high value points to weaker potency in that assay.

In patent publication US20150071989A1, “LIPOSOMES FOR HEMATOLOGICAL TUMORS” (University of Tennessee Research Foundation, priority 2013, published 2015) one finds IC50 data, which are given here for one molecule.

The test system of one assay is Daudi cells. Briefly: MTT cell viability assay, in vitro cytotoxicity in CD22+ Daudi cells. As to conditions: Homo sapiens. The format is cell-based. The method, then:
FIG. 14B is a graph showing the in vitro cytotoxicity of targeted, drug-loaded liposomes (solid line, “CD22 Targeted NP”) and untargeted, drug-loaded liposomes (dotted line, “Untargeted NP”) in Daudi cells after 24 hours. The Daudi cells have the cell surface antigen (CD22) to which the antibody of the targeted liposomes binds. For comparison, the in vitro cytotoxic effects of free (solution) drug (N-benzyladriamycin-14-valerate (AD198)) are also shown (dashed line, “Solution Drug”). Cytotoxicity is expressed as percentage (%) cell kill as measured via (3-(4,5-dimethylthiazol-2-yl)-2,5-diphenyltetrazolium bromide (MIT) cell viability assay. The data represents the average of three measurements; the error bars represent±standard deviation.
FIG. 15B is a graph showing the in vitro cytotoxicity of targeted, drug-loaded liposomes (solid line, “CD22 Targeted NP”) and untargeted, drug-loaded liposomes (dotted line, “Untargeted NP”) in Daudi cells after 48 hours. The Daudi cells have the cell surface antigen (CD22) to which the antibody of the targeted liposomes binds. […] Cytotoxicity is expressed as percentage (%) cell kill as measured via (3-(4,5-dimethylthiazol-2-yl)-2,5-diphenyltetrazolium bromide (MTT) cell viability assay. The data represents the average of three measurements; the error bars represent±standard deviation. […]
On the technique in general: Tetrazolium dyes change colour on reduction, which living cells bring about.

For a further assay, the system named is Jurkat cells. The assay can be described thus: MTT cell viability assay, in vitro cytotoxicity in CD22- Jurkat cells. As to conditions: Homo sapiens. The class given is cell-based. The method, then:
FIG. 14A is a graph showing the in vitro cytotoxicity of targeted, drug-loaded liposomes (solid line, “CD22 Targeted NP”) and untargeted, drug-loaded liposomes (dotted line, “Untargeted NP”) in Jurkat cells after 24 hours. The Jurkat cells lack the cell surface antigen (CD22) to which the antibody of the targeted liposomes binds. For comparison, the in vitro cytotoxic effects of free (solution) drug (N-benzyladriamycin-14-valerate (AD198)) are also shown (dashed line, “Solution Drug”). Cytotoxicity is expressed as percentage (%) cell kill as measured via (3-(4,5-dimethylthiazol-2-yl)-2,5-diphenyltetrazolium bromide (MTT) cell viability assay. The data represents the average of three measurements; the error bars represent±standard deviation.
FIG. 15A is a graph showing the in vitro cytotoxicity of targeted, drug-loaded liposomes (solid line, “CD22 Targeted NP”) and untargeted, drug-loaded liposomes (dotted line, “Untargeted NP”) in Jurkat cells after 48 hours. […] Cytotoxicity is expressed as percentage (%) cell kill as measured via (3-(4,5-dimethylthiazol-2-yl)-2,5-diphenyltetrazolium bromide (MTT) assay. The data represents the average of three measurements; the error bars represent±standard deviation.
In vitro efficacy of the liposomes was also studied using the MTT assay to assess cell viability. […] IC50 concentrations were also calculated for the solution drug and the targeted liposome. […]

Turning to `CCCCC(=O)OCC(=O)[C@]1(O)Cc2c(O)c3c(c(O)c2[C@@H](O[C@H]2C[C@H](NCc4ccccc4)[C@H](O)[C@H](C)O2)C1)C(=O)c1c(OC)cccc1C3=O` [AD198, N-benzyladriamycin-14-valerate], the IC50 was determined as 250 nM in the assay on Daudi cells (Daudi cells (CD22+), 24 hours); 100 nM in the assay with Daudi cells (Daudi cells, 48 hours); 1050 nM in the assay on Jurkat cells (Jurkat cells (CD22-), 24 hours); 100 nM in the assay with Jurkat cells (Jurkat cells, 48 hours).
